≈ marks a conversion by molar mass, not a printed value.

This assay deals with Pyricularia grisea. The experiment in a line: Antifungal activity against Magnaporthe grisea. In kind it is functional.
`CCCC[C@H](O)/C=C/C(=O)O[C@@H]1[C@@H](C)[C@@H]2OC(=O)C(C)=C[C@@]2(C)O[C@H]1C` [BOTCININ D] registered an MIC of 12.5 µM (≈ 4.58 µg/mL).

In turn, `CCCC[C@H](O)/C=C/C(=O)O[C@@H]1[C@@H](C)[C@@H]2OC(=O)[C@@H](C)[C@H](O)[C@@]2(C)O[C@H]1C` [BOTCININ F] displayed an MIC of 100 µM (≈ 38.4 µg/mL).

`CCCCCC[C@H](O)/C=C/C(=O)O[C@@H]1[C@@H](C)[C@@H]2OC(=O)[C@H](C)[C@H](OC(C)=O)[C@@]2(C)O[C@H]1C` [BOTCININ B] registered an MIC of 12.5 µM (≈ 5.68 µg/mL).

In the case of `CCCC[C@H](O)/C=C/C(=O)O[C@@H]1[C@@H](C)[C@@H]2OC(=O)[C@H](C)[C@H](O)[C@@]2(C)O[C@H]1C` [3-O-DEACETYLBOTCININ A], the MIC was found to be 100 µM (≈ 38.4 µg/mL).

The compound `CCCC[C@H](O)/C=C/C(=O)O[C@@H]1[C@@H](C)[C@H](O)[C@@](C)([C@@H](O)[C@@H](C)C(=O)O)O[C@H]1C` [BOTCINIC ACID] returned an MIC of 100 µM (≈ 40.2 µg/mL).

These data come from ChEMBL document CHEMBL1157344, “Botcinins E and F and Botcinolide from Botrytis cinerea and structural revision of botcinolides” (2006).
